# In ChEMBL document CHEMBL5724914, “Linking interpersonal differences in gut microbiota composition and drug biotransformation activity” (2024):
# Conditions: human gut metagenome, 24 h, 2 µM
# Further: call rule not given here.
row,Bacterial Biotransformation,SMILES
1,Compound metabolized,CCCCC(=O)N(Cc1ccc(-c2ccccc2-c2nnn[nH]2)cc1)[C@H](C(=O)O)C(C)C
2,Compound NOT metabolized,CN(C)CCC=C1c2ccccc2C=Cc2ccccc21 [CYCLOBENZAPRINE]
3,Compound NOT metabolized,CCN(CC)CCNC(=O)c1cc(Cl)c(N)cc1OC [METOCLOPRAMIDE]
4,Compound NOT metabolized,Cc1ccccc1N1C(=O)c2cc(S(N)(=O)=O)c(Cl)cc2NC1C (stereo not given) [METOLAZONE]

# Test: (§1) The drug is tested on Z-003 corresponding to pig gut metagenome with ENA study accession number: PRJEB37062 and ENA sample accession number: ERS12561803 for biotransformation under anaerobic condition. The drug concentrations were measured over 9 timepoints collected between 0 and 24 hours of incubation by liquid-chromatography-coupled mass spectrometry (LC–MS)
# Conditions: 2 µM
row,Bacterial Biotransformation,SMILES
1,Compound NOT metabolized,CCCCC(=O)N(Cc1ccc(-c2ccccc2-c2nnn[nH]2)cc1)[C@H](C(=O)O)C(C)C
2,Compound metabolized,CN(C)CCC=C1c2ccccc2C=Cc2ccccc21 [CYCLOBENZAPRINE]
3,Compound NOT metabolized,CCN(CC)CCNC(=O)c1cc(Cl)c(N)cc1OC [METOCLOPRAMIDE]
4,Compound NOT metabolized,Cc1ccccc1N1C(=O)c2cc(S(N)(=O)=O)c(Cl)cc2NC1C (stereo not given) [METOLAZONE]

# Test: as §1, with “Z-012” for “Z-003”, “to” for “to pig gut”, “ERS12561812” for “ERS12561803”
# Conditions: 2 µM
row,Bacterial Biotransformation,SMILES
1,Compound NOT metabolized,CCCCC(=O)N(Cc1ccc(-c2ccccc2-c2nnn[nH]2)cc1)[C@H](C(=O)O)C(C)C
2,Compound NOT metabolized,CN(C)CCC=C1c2ccccc2C=Cc2ccccc21 [CYCLOBENZAPRINE]
3,Compound NOT metabolized,CCN(CC)CCNC(=O)c1cc(Cl)c(N)cc1OC [METOCLOPRAMIDE]
4,Compound NOT metabolized,Cc1ccccc1N1C(=O)c2cc(S(N)(=O)=O)c(Cl)cc2NC1C (stereo not given) [METOLAZONE]

# Test: as §1, with “Z-007” for “Z-003”, “rat” for “pig”, “ERS12561807” for “ERS12561803”
# Conditions: 2 µM
row,Bacterial Biotransformation,SMILES
1,Compound NOT metabolized,CCCCC(=O)N(Cc1ccc(-c2ccccc2-c2nnn[nH]2)cc1)[C@H](C(=O)O)C(C)C
2,Compound NOT metabolized,CN(C)CCC=C1c2ccccc2C=Cc2ccccc21 [CYCLOBENZAPRINE]
3,Compound NOT metabolized,CCN(CC)CCNC(=O)c1cc(Cl)c(N)cc1OC [METOCLOPRAMIDE]
4,Compound NOT metabolized,Cc1ccccc1N1C(=O)c2cc(S(N)(=O)=O)c(Cl)cc2NC1C (stereo not given) [METOLAZONE]

# Test: as §1, with “WLS-350” for “Z-003”, “human” for “pig”, “ERS12561789” for “ERS12561803”
# Conditions: 2 µM
row,Bacterial Biotransformation,SMILES
1,Compound metabolized,CCCCC(=O)N(Cc1ccc(-c2ccccc2-c2nnn[nH]2)cc1)[C@H](C(=O)O)C(C)C
2,Compound metabolized,CN(C)CCC=C1c2ccccc2C=Cc2ccccc21 [CYCLOBENZAPRINE]
3,Compound NOT metabolized,CCN(CC)CCNC(=O)c1cc(Cl)c(N)cc1OC [METOCLOPRAMIDE]
4,Compound metabolized,Cc1ccccc1N1C(=O)c2cc(S(N)(=O)=O)c(Cl)cc2NC1C (stereo not given) [METOLAZONE]

# Conditions: human gut metagenome, 24 h, 2 µM
# Remark: another data set of the same source
row,Bacterial Biotransformation,SMILES
1,Compound metabolized,CCCCC(=O)N(Cc1ccc(-c2ccccc2-c2nnn[nH]2)cc1)[C@H](C(=O)O)C(C)C
2,Compound metabolized,CN(C)CCC=C1c2ccccc2C=Cc2ccccc21 [CYCLOBENZAPRINE]
3,Compound NOT metabolized,CCN(CC)CCNC(=O)c1cc(Cl)c(N)cc1OC [METOCLOPRAMIDE]
4,Compound metabolized,Cc1ccccc1N1C(=O)c2cc(S(N)(=O)=O)c(Cl)cc2NC1C (stereo not given) [METOLAZONE]

# Test: as §1, with “Z-029” for “Z-003”, “rat” for “pig”, “ERS12561828” for “ERS12561803”
# Conditions: 2 µM
row,Bacterial Biotransformation,SMILES
1,Compound NOT metabolized,CCCCC(=O)N(Cc1ccc(-c2ccccc2-c2nnn[nH]2)cc1)[C@H](C(=O)O)C(C)C
2,Compound NOT metabolized,CN(C)CCC=C1c2ccccc2C=Cc2ccccc21 [CYCLOBENZAPRINE]
3,Compound NOT metabolized,CCN(CC)CCNC(=O)c1cc(Cl)c(N)cc1OC [METOCLOPRAMIDE]
4,Compound NOT metabolized,Cc1ccccc1N1C(=O)c2cc(S(N)(=O)=O)c(Cl)cc2NC1C (stereo not given) [METOLAZONE]

# Conditions: human gut metagenome, 24 h, 2 µM
# Remark: another data set of the same source
row,Bacterial Biotransformation,SMILES
1,Compound metabolized,CCCCC(=O)N(Cc1ccc(-c2ccccc2-c2nnn[nH]2)cc1)[C@H](C(=O)O)C(C)C
2,Compound metabolized,CN(C)CCC=C1c2ccccc2C=Cc2ccccc21 [CYCLOBENZAPRINE]
3,Compound NOT metabolized,CCN(CC)CCNC(=O)c1cc(Cl)c(N)cc1OC [METOCLOPRAMIDE]
4,Compound NOT metabolized,Cc1ccccc1N1C(=O)c2cc(S(N)(=O)=O)c(Cl)cc2NC1C (stereo not given) [METOLAZONE]

# Test: as §1, with “Z-005” for “Z-003”, “to” for “to pig gut”, “ERS12561805” for “ERS12561803”
# Conditions: 2 µM
row,Bacterial Biotransformation,SMILES
1,Compound NOT metabolized,CCCCC(=O)N(Cc1ccc(-c2ccccc2-c2nnn[nH]2)cc1)[C@H](C(=O)O)C(C)C
2,Compound NOT metabolized,CN(C)CCC=C1c2ccccc2C=Cc2ccccc21 [CYCLOBENZAPRINE]
3,Compound NOT metabolized,CCN(CC)CCNC(=O)c1cc(Cl)c(N)cc1OC [METOCLOPRAMIDE]
4,Compound NOT metabolized,Cc1ccccc1N1C(=O)c2cc(S(N)(=O)=O)c(Cl)cc2NC1C (stereo not given) [METOLAZONE]

# Test: as §1, with “WLS-240” for “Z-003”, “human” for “pig”, “ERS12561773” for “ERS12561803”
# Conditions: 2 µM
row,Bacterial Biotransformation,SMILES
1,Compound metabolized,CCCCC(=O)N(Cc1ccc(-c2ccccc2-c2nnn[nH]2)cc1)[C@H](C(=O)O)C(C)C
2,Compound metabolized,CN(C)CCC=C1c2ccccc2C=Cc2ccccc21 [CYCLOBENZAPRINE]
3,Compound metabolized,CCN(CC)CCNC(=O)c1cc(Cl)c(N)cc1OC [METOCLOPRAMIDE]
4,Compound metabolized,Cc1ccccc1N1C(=O)c2cc(S(N)(=O)=O)c(Cl)cc2NC1C (stereo not given) [METOLAZONE]

# Conditions: human gut metagenome, 24 h, 2 µM
# Remark: another data set of the same source
row,Bacterial Biotransformation,SMILES
1,Compound metabolized,CCCCC(=O)N(Cc1ccc(-c2ccccc2-c2nnn[nH]2)cc1)[C@H](C(=O)O)C(C)C
2,Compound metabolized,CN(C)CCC=C1c2ccccc2C=Cc2ccccc21 [CYCLOBENZAPRINE]
3,Compound NOT metabolized,CCN(CC)CCNC(=O)c1cc(Cl)c(N)cc1OC [METOCLOPRAMIDE]
4,Compound NOT metabolized,Cc1ccccc1N1C(=O)c2cc(S(N)(=O)=O)c(Cl)cc2NC1C (stereo not given) [METOLAZONE]

# Conditions: human gut metagenome, 24 h, 2 µM
# Remark: another data set of the same source
row,Bacterial Biotransformation,SMILES
1,Compound metabolized,CCCCC(=O)N(Cc1ccc(-c2ccccc2-c2nnn[nH]2)cc1)[C@H](C(=O)O)C(C)C
2,Compound metabolized,CN(C)CCC=C1c2ccccc2C=Cc2ccccc21 [CYCLOBENZAPRINE]
3,Compound NOT metabolized,CCN(CC)CCNC(=O)c1cc(Cl)c(N)cc1OC [METOCLOPRAMIDE]
4,Compound NOT metabolized,Cc1ccccc1N1C(=O)c2cc(S(N)(=O)=O)c(Cl)cc2NC1C (stereo not given) [METOLAZONE]

# Test: as §1, with “Z-018” for “Z-003”, “ERS12561817” for “ERS12561803”
# Conditions: 2 µM
row,Bacterial Biotransformation,SMILES
1,Compound NOT metabolized,CCCCC(=O)N(Cc1ccc(-c2ccccc2-c2nnn[nH]2)cc1)[C@H](C(=O)O)C(C)C
2,Compound metabolized,CN(C)CCC=C1c2ccccc2C=Cc2ccccc21 [CYCLOBENZAPRINE]
3,Compound NOT metabolized,CCN(CC)CCNC(=O)c1cc(Cl)c(N)cc1OC [METOCLOPRAMIDE]
4,Compound NOT metabolized,Cc1ccccc1N1C(=O)c2cc(S(N)(=O)=O)c(Cl)cc2NC1C (stereo not given) [METOLAZONE]

# Conditions: human gut metagenome, 24 h, 2 µM
# Remark: another data set of the same source
row,Bacterial Biotransformation,SMILES
1,Compound NOT metabolized,CCCCC(=O)N(Cc1ccc(-c2ccccc2-c2nnn[nH]2)cc1)[C@H](C(=O)O)C(C)C
2,Compound metabolized,CN(C)CCC=C1c2ccccc2C=Cc2ccccc21 [CYCLOBENZAPRINE]
3,Compound NOT metabolized,CCN(CC)CCNC(=O)c1cc(Cl)c(N)cc1OC [METOCLOPRAMIDE]
4,Compound NOT metabolized,Cc1ccccc1N1C(=O)c2cc(S(N)(=O)=O)c(Cl)cc2NC1C (stereo not given) [METOLAZONE]

# Conditions: human gut metagenome, 24 h, 2 µM
# Remark: another data set of the same source
row,Bacterial Biotransformation,SMILES
1,Compound metabolized,CCCCC(=O)N(Cc1ccc(-c2ccccc2-c2nnn[nH]2)cc1)[C@H](C(=O)O)C(C)C
2,Compound metabolized,CN(C)CCC=C1c2ccccc2C=Cc2ccccc21 [CYCLOBENZAPRINE]
3,Compound NOT metabolized,CCN(CC)CCNC(=O)c1cc(Cl)c(N)cc1OC [METOCLOPRAMIDE]
4,Compound NOT metabolized,Cc1ccccc1N1C(=O)c2cc(S(N)(=O)=O)c(Cl)cc2NC1C (stereo not given) [METOLAZONE]

# Conditions: human gut metagenome, 24 h, 2 µM
# Remark: another data set of the same source
row,Bacterial Biotransformation,SMILES
1,Compound metabolized,CCCCC(=O)N(Cc1ccc(-c2ccccc2-c2nnn[nH]2)cc1)[C@H](C(=O)O)C(C)C
2,Compound metabolized,CN(C)CCC=C1c2ccccc2C=Cc2ccccc21 [CYCLOBENZAPRINE]
3,Compound NOT metabolized,CCN(CC)CCNC(=O)c1cc(Cl)c(N)cc1OC [METOCLOPRAMIDE]
4,Compound metabolized,Cc1ccccc1N1C(=O)c2cc(S(N)(=O)=O)c(Cl)cc2NC1C (stereo not given) [METOLAZONE]

# Conditions: human gut metagenome, 24 h, 2 µM
# Remark: another data set of the same source
row,Bacterial Biotransformation,SMILES
1,Compound metabolized,CCCCC(=O)N(Cc1ccc(-c2ccccc2-c2nnn[nH]2)cc1)[C@H](C(=O)O)C(C)C
2,Compound metabolized,CN(C)CCC=C1c2ccccc2C=Cc2ccccc21 [CYCLOBENZAPRINE]
3,Compound NOT metabolized,CCN(CC)CCNC(=O)c1cc(Cl)c(N)cc1OC [METOCLOPRAMIDE]
4,Compound metabolized,Cc1ccccc1N1C(=O)c2cc(S(N)(=O)=O)c(Cl)cc2NC1C (stereo not given) [METOLAZONE]

# Conditions: human gut metagenome, 24 h, 2 µM
# Remark: another data set of the same source
row,Bacterial Biotransformation,SMILES
1,Compound metabolized,CCCCC(=O)N(Cc1ccc(-c2ccccc2-c2nnn[nH]2)cc1)[C@H](C(=O)O)C(C)C
2,Compound NOT metabolized,CN(C)CCC=C1c2ccccc2C=Cc2ccccc21 [CYCLOBENZAPRINE]
3,Compound NOT metabolized,CCN(CC)CCNC(=O)c1cc(Cl)c(N)cc1OC [METOCLOPRAMIDE]
4,Compound NOT metabolized,Cc1ccccc1N1C(=O)c2cc(S(N)(=O)=O)c(Cl)cc2NC1C (stereo not given) [METOLAZONE]

# Test: as §1, with “WLS-082” for “Z-003”, “human” for “pig”, “ERS12561751” for “ERS12561803”
# Conditions: 2 µM
row,Bacterial Biotransformation,SMILES
1,Compound metabolized,CCCCC(=O)N(Cc1ccc(-c2ccccc2-c2nnn[nH]2)cc1)[C@H](C(=O)O)C(C)C
2,Compound metabolized,CN(C)CCC=C1c2ccccc2C=Cc2ccccc21 [CYCLOBENZAPRINE]
3,Compound NOT metabolized,CCN(CC)CCNC(=O)c1cc(Cl)c(N)cc1OC [METOCLOPRAMIDE]
4,Compound NOT metabolized,Cc1ccccc1N1C(=O)c2cc(S(N)(=O)=O)c(Cl)cc2NC1C (stereo not given) [METOLAZONE]

# Conditions: human gut metagenome, 24 h, 2 µM
# Remark: another data set of the same source
row,Bacterial Biotransformation,SMILES
1,Compound metabolized,CCCCC(=O)N(Cc1ccc(-c2ccccc2-c2nnn[nH]2)cc1)[C@H](C(=O)O)C(C)C
2,Compound metabolized,CN(C)CCC=C1c2ccccc2C=Cc2ccccc21 [CYCLOBENZAPRINE]
3,Compound NOT metabolized,CCN(CC)CCNC(=O)c1cc(Cl)c(N)cc1OC [METOCLOPRAMIDE]
4,Compound metabolized,Cc1ccccc1N1C(=O)c2cc(S(N)(=O)=O)c(Cl)cc2NC1C (stereo not given) [METOLAZONE]
